This is an account of results in patent US10597378B2 (priority 2017, dated 2020).

The assay has as its target MOR (Homo sapiens, UniProt P35372). Nature of the assay: cell-based. More on the design: expressed in transfected cells; host or cells: CHO-K1/MOR/Ga15 cells. To be noted: for FLIPR Ca2+ AUC: area under the [Ca2+]i fluorescence response curve, up to 90 s. As for the experimental part:
In an exemplary in vitro assay for identifying MOR agonists, cells that express a MOR are treated with a test compound in a cellular calcium fluorescent assay and calcium fluorescence intensity is then measured to determine whether the MOR is activated. A test compound is identified as a MOR agonist if the MOR is activated.
EC50 herein refers to the concentration of a compound that induces a response halfway between the baseline and the maximum after a specified exposure time. AUC refers to the area under the response curve, an indication of the compound's capability of activating a MOR.
One day before the assay, CORNING® black with clear flat bottom 96-well assay plates were coated with a 0.1 mg/mL Poly-L-Lysine solution. CHO-K1/MOR/Ga15 cells were suspended in the F12 medium and plated at a density of about 8×10^4 cells/well in […] medium. Cells were incubated in a humidified atmosphere of 10% CO2 at 37° C. overnight so as to reach an 80-90% confluent cell monolayer before the assay. On the day of the assay, 150 μL medium/well was removed from plate. […] Compounds and other reagents were dissolved in the assay buffer. […] The [Ca^2+]i fluorescence was measured up to 90 s after agonist injection.

Where [1] appears, read: CHO-K1/MOR/Ga15 cells, read-out: FLIPR Ca2+ EC50.

pEC50: −log10 of the molar value. Like-named read-outs stand apart in the source and are kept apart here.

Chain of MOR (P35372 whole entry): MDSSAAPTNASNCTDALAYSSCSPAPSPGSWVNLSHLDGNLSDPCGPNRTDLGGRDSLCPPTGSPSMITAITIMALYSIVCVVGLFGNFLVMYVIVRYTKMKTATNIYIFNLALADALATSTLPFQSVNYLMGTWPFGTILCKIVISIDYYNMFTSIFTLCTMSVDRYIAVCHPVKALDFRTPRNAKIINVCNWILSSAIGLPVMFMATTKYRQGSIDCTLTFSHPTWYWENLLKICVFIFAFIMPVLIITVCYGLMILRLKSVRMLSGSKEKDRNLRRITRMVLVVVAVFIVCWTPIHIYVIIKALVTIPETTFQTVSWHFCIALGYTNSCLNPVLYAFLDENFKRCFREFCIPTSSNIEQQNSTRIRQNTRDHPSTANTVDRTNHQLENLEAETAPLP

Usually pEC50 stands for the negative decadic logarithm of the EC50, by convention in mol/L. As for `O=C(NCC1NCCc2ccccc21)C1CCCCC1` (centres unmarked) [Compound 5, N-(1,2,3,4-Tetrahydro-1-isoquinolinylmethyl)cyclohexanecarboxamide], the “FLIPR Ca2+ AUC” value is 6142. In addition, under setting [1], the pEC50 was 5.20.

With `O=C(NCC1c2ccccc2CCN1S(=O)(=O)c1ccc(Br)cc1OC(F)(F)F)C1CCCCC1` (centres unmarked) [Compound 6, N-[(2-{[4-Bromo-2-(trifluoromethoxy)phenyl]sulfonyl}-1,2,3,4-tetrahydro-1-isoquinolinyl)methyl]cyclohexanecarboxamide], the “FLIPR Ca2+ AUC” value came to 15139. In addition, the pEC50 under setting [1] was 5.95.

Turning to `O=C(NCC1c2ccccc2CCN1S(=O)(=O)c1ccc(Br)cc1C(F)(F)F)C1CCCCC1` (centres unmarked) [Compound 7, N-[(2-{[4-Bromo-2-(trifluoromethyl)phenyl]sulfonyl}-1,2,3,4-tetrahydro-1-isoquinolinyl)methyl]cyclohexanecarboxamide], the “FLIPR Ca2+ AUC” value is listed as 7697. Moreover, the pEC50 under setting [1] is 5.59.

`Cc1cc(Br)ccc1S(=O)(=O)N1CCc2ccccc2C1CNC(=O)C1CCCCC1` (centres unmarked) [Compound 8, N-({2-[(4-Bromo-2-methylphenyl)sulfonyl]-1,2,3,4-tetrahydro-1-isoquinolinyl}methyl)cyclohexanecarboxamide]: the “FLIPR Ca2+ AUC” value stood at 3757. Under setting [1], the negative logarithm of the EC50 (pEC50) was greater than 5.00. Besides, the negative logarithm of the EC50 (pEC50) (FLIPR Ca2+ EC50, CHO-K1/MOR/Ga15 cells) is 5.20.

As for `O=C(NCC1c2ccccc2CCN1S(=O)(=O)c1ccc(Br)cc1)C1CCCCC1` (centres unmarked) [Compound 9, N-({2-[(4-Bromophenyl)sulfonyl]-1,2,3,4-tetrahydro-1-isoquinolinyl}methyl)cyclohexanecarboxamide], the “FLIPR Ca2+ AUC” value is reported as 6103. Further, under setting [1], the negative logarithm of the EC50 (pEC50) is 5.05.

Consider `O=C(NCC1c2ccccc2CCN1S(=O)(=O)c1ccc(Br)cc1Br)C1CCCCC1` (centres unmarked) [Compound 10, N-({2-[(2,4-Dibromophenyl)sulfonyl]-1,2,3,4-tetrahydro-1-isoquinolinyl}methyl)cyclohexanecarboxamide], for which the “FLIPR Ca2+ AUC” value worked out at 7023. Also, the pEC50 under setting [1] was 5.48.

With `O=C(NCC1c2ccccc2CCN1S(=O)(=O)c1ccc(Br)cc1Cl)C1CCCCC1` (centres unmarked) [Compound 11, N-({2-[(4-Bromo-2-chlorophenyl)sulfonyl]-1,2,3,4-tetrahydro-1-isoquinolinyl}methyl)cyclohexanecarboxamide], the pEC50 is 5.25 and the “FLIPR Ca2+ AUC” value is given as 7597.

As to `O=C(NCC1c2ccccc2CCN1S(=O)(=O)c1ccc(Br)cc1F)C1CCCCC1` (centres unmarked) [Compound 12, N-({2-[ (4-Bromo-2-fluorophenyl)sulfonyl]-1,2,3,4-tetrahydro-1-isoquinolinyl}methyl)cyclohexanecarboxamide], the “FLIPR Ca2+ AUC” value is recorded as 7271. Moreover, the pEC50 under setting [1] was 5.02.

For `O=C(NCC1c2ccccc2CCN1S(=O)(=O)c1ccccc1OC(F)(F)F)C1CCCCC1` (centres unmarked) [Compound 13, N-[(2-{[2-(Trifluoromethoxy)phenyl]sulfonyl}-1,2,3,4-tetrahydro-1-isoquinolinyl)methyl]cyclohexanecarboxamide], the “FLIPR Ca2+ AUC” value amounted to 5152. Moreover, under setting [1], the pEC50 is 5.48.

For the molecule `COc1ccccc1S(=O)(=O)N1CCc2ccccc2C1CNC(=O)C1CCCCC1` (centres unmarked) [Compound 14, N-({2-[(2-Methoxyphenyl)sulfonyl]-1,2,3,4-tetrahydro-1-isoquinolinyl}methyl)cyclohexanecarboxamide], the “FLIPR Ca2+ AUC” value worked out at 3327. In addition, under setting [1], the pEC50 was 4.65.

With `O=C(NCC1c2ccccc2CCN1S(=O)(=O)c1ccc(F)cc1C(F)(F)F)C1CCCCC1` (centres unmarked) [Compound 15, N-[(2-{[4-Fluoro-2-(trifluoromethyl)phenyl]sulfonyl}-1,2,3,4-tetrahydro-1-isoquinolinyl)methyl]cyclohexanecarboxamide], the “FLIPR Ca2+ AUC” value amounted to 5153. Also, the pEC50 under setting [1] was 5.23.

As for `Cc1cc(F)ccc1S(=O)(=O)N1CCc2ccccc2C1CNC(=O)C1CCCCC1` (centres unmarked) [Compound 16, N-({2-[(4-Fluoro-2-methylphenyl)sulfonyl]-1,2,3,4-tetrahydro-1-isoquinolinyl}methyl)cyclohexanecarboxamide], the “FLIPR Ca2+ AUC” value worked out at 6213. Under setting [1], the pEC50 is 5.00.

Turning to `O=C(NCC1c2ccccc2CCN1S(=O)(=O)c1ccc(Cl)cc1)C1CCCCC1` (centres unmarked) [Compound 17, N-({2-[(4-Chlorophenyl)sulfonyl]-1,2,3,4-tetrahydro-1-isoquinolinyl}methyl)cyclohexanecarboxamide], the pEC50 is 5.22 and the “FLIPR Ca2+ AUC” value came out at 6144.

In the case of `Cc1ccc(S(=O)(=O)N2CCc3ccccc3C2CNC(=O)C2CCCCC2)cc1` (centres unmarked) [Compound 18, N-({2-[(4-Methylphenyl)sulfonyl]-1,2,3,4-tetrahydro-1-isoquinolinyl}methyl)cyclohexanecarboxamide], the pEC50 is 5.19 and the “FLIPR Ca2+ AUC” value turned out to be 6808.

In the case of `COc1ccc(S(=O)(=O)N2CCc3ccccc3C2CNC(=O)C2CCCCC2)cc1` (centres unmarked) [Compound 19, N-({2-[(4-Methoxyphenyl)sulfonyl]-1,2,3,4-tetrahydro-1-isoquinolinyl}methyl)cyclohexanecarboxamide], the “FLIPR Ca2+ AUC” value is recorded as 3418. For the same molecule, the pEC50 under setting [1] is 5.11.

Regarding `CC1CCC(C(=O)NCC2c3ccccc3CCN2S(=O)(=O)c2ccc(Br)cc2OC(F)(F)F)CC1` (centres unmarked) [Compound 20, N-[(2-{[4-Bromo-2-(trifluoromethoxy)phenyl]sulfonyl}-1,2,3,4-tetrahydro-1-isoquinolinyl)methyl]-4-methylcyclohexanecarboxamide], the negative logarithm of the EC50 (pEC50) under setting [1] is 6.01.

Consider `O=C(NCC1c2ccccc2CCN1S(=O)(=O)c1ccc(Br)cc1OC(F)(F)F)C1CCCC1` (centres unmarked) [Compound 21, N-[(2-{[4-Bromo-2-(trifluoromethoxy)phenyl]sulfonyl}-1,2,3,4-tetrahydro-1-isoquinolinyl)methyl]cyclopentanecarboxamide], for which the pEC50 under setting [1] was 6.09.

As for `O=C(NCC1c2ccccc2CCN1S(=O)(=O)c1ccc(Br)cc1OC(F)(F)F)c1ccccc1` (centres unmarked) [Compound 24, N-[(2-{[4-Bromo-2-(trifluoromethoxy)phenyl]sulfonyl}-1,2,3,4-tetrahydro-1-isoquinolinyl)methyl]benzamide], the “FLIPR Ca2+ AUC” value is on record as 9294. Besides, the pEC50 under setting [1] was 5.25.

With `O=C(NCC1c2ccccc2CCN1S(=O)(=O)c1ccc(Br)cc1OC(F)(F)F)N1CCCCC1` (centres unmarked) [Compound 25, N-[(2-{[4-Bromo-2-(trifluoromethoxy)phenyl]sulfonyl}-1,2,3,4-tetrahydro-1-isoquinolinyl)methyl]-1-piperidinecarboxamide], the “FLIPR Ca2+ AUC” value turned out to be 10498. Moreover, the pEC50 under setting [1] is 5.56.

As for `O=C(NCC1c2ccccc2CCN1S(=O)(=O)c1ccc(Br)cc1OC(F)(F)F)N1CCCC1` (centres unmarked) [Compound 26, N-[(2-{[4-Bromo-2-(trifluoromethoxy)phenyl]sulfonyl}-1,2,3,4-tetrahydro-1-isoquinolinyl)methyl]-1-pyrrolidinecarboxamide], the “FLIPR Ca2+ AUC” value is 12484. For the same molecule, the pEC50 under setting [1] is 5.36.

In the case of `O=C(NCC1c2ccccc2CCN1S(=O)(=O)c1ccc(Br)cc1OC(F)(F)F)C1CCC1` (centres unmarked) [Compound 27, N-[(2-{[4-Bromo-2-(trifluoromethoxy)phenyl]sulfonyl}-1,2,3,4-tetrahydro-1-isoquinolinyl)methyl]cyclobutanecarboxamide], the “FLIPR Ca2+ AUC” value is on record as 13461. The pEC50 under setting [1] is 5.87.
